Molecules are shown by their SMILES. In brackets after ≈: the same amount, converted by molar mass.

The subject of data set [1] is Rattus norvegicus. The data set is described as follows: Inhibition of haloperidol-induced catalepsy in rat at 3 mg/kg, po after 4 hrs. The format is functional.
A further data set has as its target Adenosine receptor A2a (Homo sapiens, UniProt P29274).
Data set [2] can be described thus: Kinetic solubility of compound at pH 7.4 by nephelometry. The class given is physicochemical. The note with it: buffer.
A short description of data set [3]: AUC (0 to 6 hrs) in rat at 3 mg/kg, po. The format is ADME, organism-based. On the set-up: time < 6 hr, dose 3 mg/kg, route oral. The note with it: plasma.
Data set [4] deals with Rattus norvegicus. The data set is described as follows: Inhibition of haloperidol-induced catalepsy in rat at 3 mg/kg, po after 1 hr. The class given is functional.
The test system of data set [5] is Rattus norvegicus. The experiment in a line: Inhibition of haloperidol-induced catalepsy in rat at 1 or 3 mg/kg, po after 1 hr. The format is functional.
Data set [6] has as its system Rattus norvegicus. The experiment in a line: Inhibition of haloperidol-induced catalepsy in rat at 1 or 3 mg/kg, po after 4 hrs. The format is functional.
The test system of data set [7] is Rattus norvegicus. The data set is described as follows: Inhibition of haloperidol-induced catalepsy in rat at 1 mg/kg, po after 1 hr. The format is functional.
Data set [8] deals with Rattus norvegicus. The experiment in a line: Inhibition of haloperidol-induced catalepsy in rat at 1 mg/kg, po after 4 hrs. The format is functional.

Sequence of Adenosine receptor A2a (P29274 whole entry): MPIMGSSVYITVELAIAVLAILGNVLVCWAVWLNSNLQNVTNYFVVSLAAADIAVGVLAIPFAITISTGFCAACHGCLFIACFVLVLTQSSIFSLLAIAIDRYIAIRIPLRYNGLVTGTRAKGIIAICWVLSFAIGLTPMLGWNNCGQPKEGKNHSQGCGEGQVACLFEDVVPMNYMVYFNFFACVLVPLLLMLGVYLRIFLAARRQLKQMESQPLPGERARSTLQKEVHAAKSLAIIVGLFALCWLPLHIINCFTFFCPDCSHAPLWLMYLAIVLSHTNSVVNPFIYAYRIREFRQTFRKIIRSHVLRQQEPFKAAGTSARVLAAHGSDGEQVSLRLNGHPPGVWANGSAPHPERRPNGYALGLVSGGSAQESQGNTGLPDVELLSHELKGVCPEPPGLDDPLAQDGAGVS
Description for Adenosine receptor A2a: Antagonist activity at human adenosine A2A receptor

One may read the inhibition in vivo as the change of the read-out against control, counted positive when it falls. In general, Ki refers to a dissociation constant, usually derived from enzyme kinetics or from competition with a known ligand. The low end stands for higher affinity, the high end for lower affinity. Broadly, the kinetic solubility is the concentration staying in solution when a stock, usually in DMSO, is diluted into the medium. In the data set with Rattus norvegicus [1], `COc1ccc(-c2ccc(CCn3ncc4c3nc(N)n3nc(-c5ccco5)nc43)cc2)cn1` yielded an inhibition in vivo at 3 mg/kg of 0%. Besides, the Ki on Adenosine receptor A2a amounted to 1.9 nM. Besides, the kinetic solubility in data set [2] is below 5 µM.

As usually defined, the AUC(0-t) is exposure summed from dosing to a finite time, without extrapolation to infinity. A low value points to low exposure. Turning to `Nc1nc2c(cnn2CCc2ccc(-c3cnccn3)cc2)c2nc(-c3ccco3)nn12`, at 3 mg/kg the inhibition in vivo in the data set with Rattus norvegicus [1] was 3%. Besides, the affinity at Adenosine receptor A2a corresponds to a Ki of 0.9 nM. In data set [3], this compound yielded an AUC(0-t) at 6 h of 0.114 µg·h/mL. The same compound returned a kinetic solubility in data set [2] below 4 µM.

On Adenosine receptor A2a, `Nc1nc2c(cnn2CCc2ccc(-c3ccccc3)cc2)c2nc(-c3ccco3)nn12` came in with a Ki of 1.1 nM.

In the case of `CC(c1ccc2cc(CCn3ncc4c3nc(N)n3nc(-c5ccco5)nc43)ccc2n1)N1CCOCC1` (stereo not given), the results for the inhibition in vivo at 3 mg/kg in the data set with Rattus norvegicus [1] and with Rattus norvegicus [4] were 13% and 28%, respectively. The same compound showed a Ki at Adenosine receptor A2a of 1.3 nM. In data set [3], this compound displayed an AUC(0-t) at 6 h of 7.49 µg·h/mL. Besides, the kinetic solubility in [2] was determined as 100 µM (≈ 51 µg/mL).

At Adenosine receptor A2a, `Nc1nc2c(cnn2CCc2ccc(-c3cccnc3)cn2)c2nc(-c3ccco3)nn12` gave a Ki of 11.4 nM.

Compound `Nc1nc2c(cnn2CCc2ccc3nc(N4CCOCC4)ccc3c2)c2nc(-c3ccco3)nn12` registered a Ki at Adenosine receptor A2a of 1.8 nM. This compound also showed an AUC(0-t) at 6 h in data set [3] of 0.006 µg·h/mL.

As for `Nc1nc2c(cnn2CCc2cccc(-c3cccnc3)c2)c2nc(-c3ccco3)nn12`, affinity on Adenosine receptor A2a was put at a Ki of 5.5 nM.

With `Cc1ccc(-c2ccc(CCn3ncc4c3nc(N)n3nc(-c5ccco5)nc43)cc2)cn1`, the Ki on Adenosine receptor A2a is 0.6 nM. Moreover, the AUC(0-t) at 6 h in [3] came out at 0.199 µg·h/mL. Also, the kinetic solubility in data set [2] was below 5 µM. Further, the inhibition in vivo at 3 mg/kg in the data set on Rattus norvegicus [5] is 60%; with Rattus norvegicus [6] it was 25%.

Regarding `Nc1nc2c(cnn2CCc2ccc3nc(CN4CCOCC4)ccc3c2)c2nc(-c3ccco3)nn12`, the inhibition in vivo at 3 mg/kg in the data set on Rattus norvegicus [1] and in the data set with Rattus norvegicus [4] was 0% throughout. The inhibition constant (Ki) at Adenosine receptor A2a is 2.3 nM. In data set [3], this compound had an AUC(0-t) at 6 h of 0.656 µg·h/mL.

Turning to `Nc1nc2c(cnn2CCc2ccc3nc(C(=O)N4CCOCC4)ccc3c2)c2nc(-c3ccco3)nn12`, the inhibition in vivo at 3 mg/kg in the data set on Rattus norvegicus [1] was determined as 13%; in the data set with Rattus norvegicus [4] it was 23%. The compound also showed an inhibitory constant (Ki) on Adenosine receptor A2a of 1.6 nM. In [2], this compound showed a kinetic solubility of 100 µM (≈ 51 µg/mL).

Take `Nc1nc2c(cnn2CCc2ccc(-c3cccnc3)cc2)c2nc(-c3ccco3)nn12`: the inhibition in vivo at 1 mg/kg in the data set with Rattus norvegicus [7] came to 40%; in the data set on Rattus norvegicus [8] it was 25%. The Ki at Adenosine receptor A2a stood at 1.5 nM. The same compound gave an AUC(0-t) at 6 h in data set [3] of 0.351 µg·h/mL. Also, the solubility (kinetic) in data set [2] was below 4 µM.

`Nc1nc2c(cnn2CCc2ccc(-c3ccc(OC(F)(F)F)cc3)cc2)c2nc(-c3ccco3)nn12`: on Adenosine receptor A2a, the affinity corresponds to a Ki of 7.8 nM. The same compound displayed an AUC(0-t) at 6 h in [3] of 0.067 µg·h/mL. In addition, in data set [2], the solubility (kinetic) was below 5 µM. The results for the inhibition in vivo at 3 mg/kg in the data set with Rattus norvegicus [5] and in the data set with Rattus norvegicus [6] were 20% and 0%, respectively.

In the case of `CCc1ccc2cc(CCn3ncc4c3nc(N)n3nc(-c5ccco5)nc43)ccc2n1`, the inhibition in vivo at 3 mg/kg in the data set with Rattus norvegicus [1] is 38%; in the data set with Rattus norvegicus [4] it was 43%. Also, on Adenosine receptor A2a, the Ki was determined as 2.7 nM. Also, the AUC(0-t) at 6 h in data set [3] stood at 0.45 µg·h/mL. In addition, in data set [2], the kinetic solubility was below 2.5 µM.

Consider `COCCOC(C)c1ccc2cc(CCn3ncc4c3nc(N)n3nc(-c5ccco5)nc43)ccc2n1` (stereo not given), for which the Ki on Adenosine receptor A2a was 1.5 nM.

In the case of `COc1ccc(-c2ccc(CCn3ncc4c3nc(N)n3nc(-c5ccco5)nc43)cc2)cc1`, the inhibition in vivo at 1 mg/kg in the data set on Rattus norvegicus [7] amounted to 30%; with Rattus norvegicus [8], 5%. The Ki at Adenosine receptor A2a worked out at 0.5 nM. The kinetic solubility in data set [2] is below 5 µM.

Turning to `Cc1ccc2cc(CCn3ncc4c3nc(N)n3nc(-c5ccco5)nc43)ccc2n1`, the inhibition in vivo at 3 mg/kg in the data set on Rattus norvegicus [1] stood at 38%; with Rattus norvegicus [4], 86%. In addition, the affinity on Adenosine receptor A2a corresponds to a Ki of 2.4 nM. This compound registered an AUC(0-t) at 6 h in [3] of 1.41 µg·h/mL. In data set [2], the kinetic solubility amounted to 6 µM (≈ 2.46 µg/mL).
